± gives the expanded uncertainty stated by the source.
Experiment: molar heat capacity at constant pressure
Settings: 101.33 kPa, Small (less than 1 g) adiabatic calorimetry

CCCCCCCCCCn1cc[n+](C)c1.O=S(=O)([N-]S(=O)(=O)C(F)(F)F)C(F)(F)F
molar heat capacity at constant pressure [J/K/mol]
Settings	Crystal 2	Metastable crystal
4.82 K	3.08 ± 0.09	–
4.98 K	–	3.38 ± 0.1
5 K	3.41 ± 0.11	3.41 ± 0.11
5.15 K	3.69 ± 0.1	–
5.32 K	–	4.05 ± 0.11
5.49 K	4.38 ± 0.12	–
5.67 K	–	4.81 ± 0.13
5.85 K	5.15 ± 0.14	–
6.03 K	–	5.65 ± 0.15
6.28 K	6.16 ± 0.16	–
6.46 K	–	6.76 ± 0.17
6.8 K	7.44 ± 0.19	–
6.97 K	–	8.15 ± 0.21
7.32 K	8.83 ± 0.22	–
7.49 K	–	9.71 ± 0.24
7.85 K	10.34 ± 0.25	–
8.02 K	–	11.34 ± 0.28
8.39 K	11.95 ± 0.29	–
8.55 K	–	13.1 ± 0.32
8.92 K	13.66 ± 0.33	–
9.09 K	–	14.97 ± 0.36
9.47 K	15.45 ± 0.37	–
9.62 K	–	16.9 ± 0.4
10 K	17.29 ± 0.33	18.31 ± 0.36
10.01 K	17.32 ± 0.28	–
10.16 K	–	18.93 ± 0.31
10.63 K	19.54 ± 0.31	–
10.78 K	–	21.32 ± 0.34
11.31 K	22.05 ± 0.35	–
11.46 K	–	24.01 ± 0.37
12 K	24.68 ± 0.38	–
12.15 K	–	26.84 ± 0.41
12.7 K	27.41 ± 0.42	–
12.85 K	–	29.77 ± 0.45
13.4 K	30.22 ± 0.45	–
13.56 K	–	32.75 ± 0.49
14.1 K	33.14 ± 0.49	–
14.27 K	–	35.9 ± 0.53
14.81 K	36.15 ± 0.53	–
14.99 K	–	39.03 ± 0.57
15 K	36.94 ± 0.52	39.12 ± 0.55
15.63 K	39.64 ± 0.57	–
15.81 K	–	42.67 ± 0.61
16.56 K	43.69 ± 0.62	–
16.75 K	–	46.88 ± 0.66
17.51 K	47.81 ± 0.66	–
17.7 K	–	51.06 ± 0.71
18.46 K	51.81 ± 0.71	–
18.65 K	–	55.14 ± 0.75
19.4 K	55.79 ± 0.75	–
19.6 K	–	59.21 ± 0.79
20 K	58.37 ± 0.57	61 ± 0.59
20.36 K	59.87 ± 0.58	–
20.85 K	–	64.6 ± 0.61
21.61 K	65.16 ± 0.6	–
22.41 K	–	71.3 ± 0.64
23.17 K	71.8 ± 0.63	–
23.98 K	–	78 ± 0.67
24.75 K	78.35 ± 0.66	–
25 K	79.32 ± 0.66	82.14 ± 0.69
25.56 K	–	84.49 ± 0.69
26.31 K	84.64 ± 0.68	–
27.07 K	–	90.53 ± 0.71
27.89 K	90.84 ± 0.69	–
28.66 K	–	96.83 ± 0.72
29.55 K	97.23 ± 0.7	–
30 K	98.9 ± 0.59	102 ± 0.6
30.24 K	–	102.9 ± 0.6
31.4 K	104 ± 0.6	–
31.98 K	–	109.5 ± 0.6
33.31 K	110.8 ± 0.6	–
33.9 K	–	116.3 ± 0.7
35 K	116.6 ± 0.7	120.1 ± 0.7
35.22 K	117.3 ± 0.7	–
35.82 K	–	123 ± 0.7
37.13 K	123.7 ± 0.7	–
37.74 K	–	129.4 ± 0.7
39.05 K	129.9 ± 0.7	–
39.66 K	–	135.6 ± 0.8
40 K	132.9 ± 0.7	136.7 ± 0.8
41.06 K	136.2 ± 0.8	–
41.68 K	–	142 ± 0.8
43.16 K	142.8 ± 0.8	–
43.79 K	–	148.7 ± 0.8
45 K	–	152.5 ± 0.9
45.27 K	149.2 ± 0.8	–
45.9 K	–	155.3 ± 0.9
47.38 K	155.7 ± 0.9	–
48.02 K	–	161.8 ± 0.9
49.5 K	161.9 ± 0.9	–
50 K	163.2 ± 1	167.6 ± 1
50.15 K	–	168 ± 0.9
51.63 K	168 ± 0.9	–
52.27 K	–	174.1 ± 1
53.75 K	173.9 ± 1	–
54.4 K	–	180 ± 1
55.87 K	179.6 ± 1	–
56.52 K	–	185.7 ± 1
57.99 K	185.1 ± 1	–
58.65 K	–	191.3 ± 1.1
60 K	190.4 ± 1.1	194.8 ± 1.1
60.11 K	190.6 ± 1.1	–
60.78 K	–	196.8 ± 1.1
62.24 K	196.1 ± 1.1	–
62.91 K	–	202.2 ± 1.1
64.38 K	201.3 ± 1.1	–
65.05 K	–	207.5 ± 1.2
66.52 K	206.5 ± 1.2	–
67.19 K	–	212.7 ± 1.2
68.65 K	211.6 ± 1.2	–
69.32 K	–	217.8 ± 1.2
70 K	214.9 ± 1.2	219.4 ± 1.2
70.79 K	216.6 ± 1.2	–
71.56 K	–	223.1 ± 1.2
73.03 K	221.9 ± 1.2	–
73.9 K	–	228.4 ± 1.3
75.37 K	227.2 ± 1.3	–
76.24 K	–	233.8 ± 1.3
77.73 K	232.5 ± 1.3	–
78.59 K	–	239 ± 1.3
80 K	237.4 ± 1.3	242.1 ± 1.4
80.09 K	237.6 ± 1.3	–
80.53 K	238.8 ± 1.3	–
80.94 K	–	244.2 ± 1.4
81.02 K	–	244.3 ± 1.4
82.24 K	242.3 ± 1.3	–
82.44 K	242.6 ± 1.3	–
82.84 K	–	248.2 ± 1.4
83.3 K	–	249.2 ± 1.4
83.96 K	245.9 ± 1.4	–
84.55 K	–	251.8 ± 1.4
85.68 K	249.4 ± 1.4	–
86.26 K	–	255.5 ± 1.4
87.42 K	253.1 ± 1.4	–
87.99 K	–	259.2 ± 1.4
89.16 K	256.6 ± 1.4	–
89.72 K	–	262.8 ± 1.5
90 K	258.5 ± 1.3	263.4 ± 1.4
90.91 K	260.3 ± 1.4	–
91.45 K	–	266.4 ± 1.4
92.66 K	263.9 ± 1.4	–
93.2 K	–	270 ± 1.4
94.42 K	267.5 ± 1.4	–
94.95 K	–	273.7 ± 1.4
96.19 K	271.1 ± 1.4	–
96.7 K	–	277.2 ± 1.4
97.97 K	274.7 ± 1.4	–
98.47 K	–	280.8 ± 1.5
99.75 K	278.1 ± 1.5	–
100 K	278.7 ± 1.4	283.9 ± 1.5
100.23 K	–	284.3 ± 1.5
101.59 K	281.8 ± 1.5	–
102.07 K	–	288.2 ± 1.5
103.5 K	285.5 ± 1.5	–
103.96 K	–	292 ± 1.5
105.42 K	289.1 ± 1.5	–
105.87 K	–	295.9 ± 1.5
107.35 K	292.7 ± 1.5	–
107.77 K	–	299.7 ± 1.6
109.27 K	296.4 ± 1.5	–
109.69 K	–	303.6 ± 1.6
110 K	297.7 ± 1.6	304.1 ± 1.6
111.21 K	299.9 ± 1.6	–
111.6 K	–	307.4 ± 1.6
113.14 K	303.5 ± 1.6	–
113.52 K	–	311.1 ± 1.6
115.09 K	307 ± 1.6	–
115.45 K	–	314.9 ± 1.6
117.03 K	310.5 ± 1.6	–
117.37 K	–	318.6 ± 1.6
118.98 K	314 ± 1.6	–
119.3 K	–	322.3 ± 1.7
120 K	315.8 ± 1.7	323.7 ± 1.7
120.92 K	317.4 ± 1.6	–
121.23 K	–	326.1 ± 1.7
122.88 K	320.8 ± 1.7	–
123.16 K	–	329.9 ± 1.7
124.83 K	324.3 ± 1.7	–
125.09 K	–	333.6 ± 1.7
126.79 K	327.7 ± 1.7	–
127.03 K	–	337.4 ± 1.7
128.75 K	331.1 ± 1.7	–
128.97 K	–	341.2 ± 1.8
130 K	333.3 ± 1.7	343.2 ± 1.8
130.71 K	334.5 ± 1.7	–
130.9 K	–	345.1 ± 1.8
132.67 K	337.9 ± 1.7	–
132.84 K	–	348.9 ± 1.8
134.64 K	341.3 ± 1.8	–
134.78 K	–	352.7 ± 1.8
136.6 K	344.8 ± 1.8	–
136.72 K	–	356.6 ± 1.8
138.57 K	348 ± 1.8	–
138.66 K	–	360.6 ± 1.9
140 K	350.5 ± 1.8	363.3 ± 1.9
140.54 K	351.4 ± 1.8	–
140.6 K	–	364.4 ± 1.9
142.51 K	354.8 ± 1.8	–

Reference: the NIST ThermoML archive (doi:10.1016/j.jct.2016.02.009)
